Consider one compound from patent US20220257706A1, “EPIDERMAL GROWTH FACTOR RECEPTOR (EGFR) LIGANDS” (NANYANG TECHNOLOGICAL UNIVERSITY, priority 2019, published 2022).

For one assay, the system named is HUVEC-CS cells. As to the kind of experiment: Endothelial tube formation assay. As to conditions: data not shown. In kind it is cell-based. Here is the method: Endothelial tube formation assay was performed using a μ-slide (ibidi, Germany). Briefly, 10 μL of gel matrix (BD Matrigel™ Basement Membrane Matrix) was casted onto each μ-slide well and left to solidify. […] After incubation for 2 h, the wells were photographed using inverted phase-contrast microscope. Images were analyzed for the numbering of branching points using the Wimasis image analysis platform.

Assay [1] relates to STZ-induced diabetic C57BL/6 mice. As to the kind of experiment: Full-thickness splinted excisional wound healing in streptozotocin-induced diabetic C57BL/6 mice. In kind it is in vivo, mouse. As to conditions: 1 nmol/wound topical, five consecutive days. The protocol:
(§1) Full-thickness 5-mm splinted excisional wounding of mice was performed. Briefly, mice were anesthetized using an intraperitoneal injection of sodium pentobarbital (50 mg kg^−1). The hair of the back was shaved with an electric clipper followed by a depilatory cream. Using a 5-mm-diameter sterile biopsy punch, symmetrical full-thickness excisional wounds were created. Splints were placed around the wound using adhesive glue and secured with four interrupted sutures. The wounds and splints were covered with Tegaderm (3M, US). At indicated days within the 14 days post-injury course, wound diameters were measured. The size of wound was calculated from the average of two diameter measurements along the x and y axis.
Diabetes was induced into C57BL/6 mice by two intraperitoneal injection (80 mg/kg) of STZ at day 1 and 5. Starting from day 8, blood glucose was monitored regularly for two weeks. […] Blood glucose was also monitored at day 14 post-injury to ensure the mice are diabetic.

In assay [2] the target is T1, EGFR (Homo sapiens, UniProt P00533). The experiment in a line: Immunoprecipitation / western blot of EGFR tyrosine phosphorylation in HaCaT cells. In kind it is cell-based. Further details: endogenous in cells; host or cells: HaCaT. The conditions noted are these: 5 μM. The protocol: Immunoprecipitation was performed using EGFR (D38B1) rabbit monoclonal antibodies conjugated to magnetic beads (Cell Signaling, US). Briefly, the magnetic beads were washed with PBS three times and 50 μg HaCaT cell lysate was added to each tube and allowed to incubate overnight at 4° C. with rotation. After incubation, the magnetic beads were washed five times with PBS. A 6× loading dye with β-mercaptoethanol was added to the resin and heated for 10 min at 85° C. The resultant mixture was centrifuged at 14000 g×1 min and resolved using 10% SDS-PAGE at a 100 V constant for 120 min. Blot transfer was performed on a PVDF membrane (GE healthcare, Sweden) at 250 mA for 120 min on ice. The blot was blocked with 5% BSA TBST before incubating overnight at 4° C. with anti-phosphotyrosine-HRP (R&D systems, US) or anti-EGFR anti-rabbit antibody (1:1000 in 5% BSA TBST; Cell Signaling, US). After incubation, the membrane was washed with TBST at room temperature for three times at 10 min each. The blot was then incubated with secondary anti-rabbit horseradish peroxidase (HRP) (1:5000 in 5% BSA TBST) and was incubated for another 1 h at room temperature. The blot was washed five times 10 min each with TBST at room temperature before the addition of chemiluminescence substrate (Advansta, US) and exposure on X-ray film (Fujifilm, Japan).
Target sequence in this assay (P00533 25-1210): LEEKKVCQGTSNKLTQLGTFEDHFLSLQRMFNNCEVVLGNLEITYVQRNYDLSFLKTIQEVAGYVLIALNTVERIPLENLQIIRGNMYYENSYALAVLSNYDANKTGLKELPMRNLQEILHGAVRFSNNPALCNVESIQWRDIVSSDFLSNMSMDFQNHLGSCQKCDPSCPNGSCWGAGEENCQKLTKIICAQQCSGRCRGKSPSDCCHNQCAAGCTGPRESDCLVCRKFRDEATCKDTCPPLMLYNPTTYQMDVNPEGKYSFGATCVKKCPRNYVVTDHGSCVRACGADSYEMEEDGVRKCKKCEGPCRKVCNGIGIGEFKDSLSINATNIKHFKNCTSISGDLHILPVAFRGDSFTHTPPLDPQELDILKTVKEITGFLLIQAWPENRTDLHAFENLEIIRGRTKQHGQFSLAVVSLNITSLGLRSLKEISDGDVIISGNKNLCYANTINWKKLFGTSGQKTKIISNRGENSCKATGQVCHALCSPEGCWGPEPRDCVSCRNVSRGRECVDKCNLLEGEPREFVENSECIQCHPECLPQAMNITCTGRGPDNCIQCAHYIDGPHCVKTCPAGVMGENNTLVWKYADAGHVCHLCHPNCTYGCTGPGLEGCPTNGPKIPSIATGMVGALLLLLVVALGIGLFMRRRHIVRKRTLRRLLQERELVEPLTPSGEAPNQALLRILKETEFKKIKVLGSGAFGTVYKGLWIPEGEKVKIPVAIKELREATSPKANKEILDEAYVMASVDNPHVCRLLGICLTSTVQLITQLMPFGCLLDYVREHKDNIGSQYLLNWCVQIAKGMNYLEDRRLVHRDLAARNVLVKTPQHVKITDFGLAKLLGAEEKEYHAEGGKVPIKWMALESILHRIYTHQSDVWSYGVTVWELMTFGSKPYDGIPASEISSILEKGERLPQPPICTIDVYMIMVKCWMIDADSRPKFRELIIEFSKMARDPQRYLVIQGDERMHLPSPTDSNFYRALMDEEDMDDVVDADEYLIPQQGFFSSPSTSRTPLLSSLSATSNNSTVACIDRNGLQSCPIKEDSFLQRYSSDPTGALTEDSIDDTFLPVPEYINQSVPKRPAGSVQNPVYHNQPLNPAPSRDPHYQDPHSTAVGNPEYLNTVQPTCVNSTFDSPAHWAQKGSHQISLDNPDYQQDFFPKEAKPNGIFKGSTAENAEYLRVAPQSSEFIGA

In a further assay the test system is ERK1/2. As to the kind of experiment: Western blot of phosphorylated ERK1/2 in HaCaT cells. In kind it is cell-based, human. As to conditions: 5 μM. Here is the method:
Blot transfer was performed onto a PVDF membrane (GE healthcare, Sweden) at 250 mA for 120 min on ice. The blot was blocked with 5% BSA TBST before incubating overnight at 4° C. with anti-P-MEK1/2 rabbit antibody (1:2000 in 5% BSA TBST; Cell Signaling, US), anti-MEK1/2 rabbit antibody (1:2000 in 5% BSA TBST; Cell Signaling, US), anti-P-ERK1/2 rabbit antibody (1:2000 in 5% BSA TBST; Cell Signaling, US), anti-ERK1/2 rabbit antibody (1:2000 in 5% BSA TBST; Cell Signaling, US), and anti-β-actin mouse antibody (1:10000 in 5% BSA TBST; Merck Millipore, US). After incubation, the membrane was washed with TBST at room temperature three times for 10 min each. The blot was then incubated with secondary anti-mouse or anti-rabbit horseradish peroxidase (HRP) (1:5000 in 5% BSA TBST; Cell Signaling, US) and was incubated for another 1 h at room temperature. The blot was washed five times 10 min each with TBST at room temperature before addition of chemiluminescence substrate (Advansta, US) and exposure on X-ray film (Fujifilm, Japan).
(In general: A western blot detects proteins with antibodies after separation by electrophoresis.)

For the next assay, the system named is C57BL/6 mice. As to the kind of experiment: Full-thickness splinted excisional wound healing in C57BL/6 mice. In kind it is in vivo, mouse. As to conditions: topical, three consecutive days; bleogen pB1 10 nmol/wound, EGF 1 nmol/wound; vs saline. Here is the method:
C57BL/6 mice were obtained from Vital Rital Laboratories (Beijing, China). […] All experiments were approved and performed in accordance with the institutional guidelines of the Experimental Animal Center of the Chinese Academy of Medical Science (Beijing, China).
as §1
Full-thickness 5 mm splinted excisional wounding of mice was performed on C57BL/6 mice as described above.

Assay [3] addresses T1, EGFR. The experiment in a line: TR-FRET EGFR ligand binding assay (competitive displacement of biotin-EGF). Further details: purchased PerkinElmer. The protocol:
TR-FRET ratio was measured using a microplate reader in dual emission mode (Excitation: 340 nm, emission: 665 nm and 615 nm) (Cytation 1, US). […] (SEQ ID NO:11) or roseltide rT7 with an amino acid sequence of […] (SEQ ID NO:17) were used as negative control.
Target sequence in this assay (P00533 25-645 limits assumed): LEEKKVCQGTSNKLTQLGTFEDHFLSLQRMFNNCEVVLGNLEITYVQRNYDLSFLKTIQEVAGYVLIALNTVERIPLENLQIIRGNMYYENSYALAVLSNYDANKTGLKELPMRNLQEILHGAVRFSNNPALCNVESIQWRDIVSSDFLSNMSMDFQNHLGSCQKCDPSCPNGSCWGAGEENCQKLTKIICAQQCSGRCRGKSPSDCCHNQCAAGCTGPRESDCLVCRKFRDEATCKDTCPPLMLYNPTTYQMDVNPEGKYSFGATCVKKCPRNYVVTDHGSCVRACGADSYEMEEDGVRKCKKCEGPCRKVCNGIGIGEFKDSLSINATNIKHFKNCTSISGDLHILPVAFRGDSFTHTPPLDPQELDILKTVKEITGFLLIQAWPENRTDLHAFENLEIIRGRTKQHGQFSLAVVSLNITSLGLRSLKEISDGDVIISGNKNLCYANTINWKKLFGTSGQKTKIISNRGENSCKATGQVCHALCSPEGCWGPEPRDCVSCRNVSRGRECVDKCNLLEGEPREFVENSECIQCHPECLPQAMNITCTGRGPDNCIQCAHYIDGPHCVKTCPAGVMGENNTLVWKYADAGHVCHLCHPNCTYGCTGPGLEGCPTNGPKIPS
(In general: In TR-FRET formats the signal depends on donor and acceptor labels being close together.)

The term IC50 denotes the concentration needed to halve the response being measured. With `CC[C@H](C)[C@@H]1NC(=O)[C@H](CCC(=O)O)NC(=O)[C@H]([C@@H](C)O)NC(=O)[C@@H]2CSSC[C@@H]3NC(=O)[C@H](Cc4ccccc4)NC(=O)[C@H](CC(N)=O)NC(=O)[C@H](CO)NC(=O)[C@H](CSSC[C@H](NC(=O)[C@@H](N)CCC(N)=O)C(=O)N[C@@H](CCCCN)C(=O)N4CCC[C@H]4C(=O)N[C@@H](CC(N)=O)C(=O)NCC(=O)N[C@@H](C)C(=O)N[C@@H](CCCCN)C(=O)N2)NC(=O)[C@H](CSSC[C@@H](C(=O)N[C@@H](C)C(=O)N[C@@H](CC(N)=O)C(=O)N[C@@H](CCCNC(=N)N)C(=O)O)NC(=O)[C@H]([C@@H](C)O)NC(=O)CNC(=O)[C@H](CO)NC(=O)[C@H](CCCCN)NC(=O)[C@H](CCC(N)=O)NC(=O)CNC(=O)[C@H](C)NC(=O)[C@H](Cc2ccc(O)cc2)NC(=O)[C@H](CCCNC(=N)N)NC(=O)[C@H](CC(C)C)NC3=O)NC(=O)[C@@H]2CCCN2C(=O)[C@@H]2CCCN2C(=O)[C@H]([C@@H](C)CC)NC(=O)[C@H](CO)NC1=O` [bleogen pB1], the “endothelial cell tube formation” value in the assay on HUVEC-CS cells was “accelerate”. In addition, the “wound healing rate vs vehicle control in STZ-induced diabetic mice” value in assay [1] is on record as “healed at a significantly faster rate starting from day 4 post-injury”. In addition, the “phosphorylation of EGFR” value at EGFR [2] is “induces the phosphorylation”. Besides, the “phosphorylation of ERK1/2” value in the assay on ERK1/2 is “induces the phosphorylation”. In the assay with C57BL/6 mice, the “wound healing, full-thickness excision wound model in C57 mice” value is given as “accelerated wound healing from day 3 to day 11”. Moreover, at EGFR [3], the IC50 is 1.72 ± 7.5e-05 µM and the “potency relative to EGF in receptor displacement (fold less potent)” value is given as 50-100 fold.
